Assay results reported in patent US9663496B2, “AMPK-activating heterocyclic compounds and methods for using the same” (Rigel Pharmaceuticals, Inc., priority 2010, dated 2017).

Molecular target: AMPK
Experiment: AMPK activation, enzyme-linked immunosorbent assay
Assay type: biochemical
Conditions: EC50 for AMPK activation, ELISA
Description: Compounds were assayed for their ability to activate AMPK using an enzyme-linked immunosorbent assay. Reagents and procedures for measuring AMPK activation are well known and kits for AMPK activation assays are commercially available.

Row | SMILES | EC50
1 | COc1ccc(CN2CCN(C(=O)c3ccc(C(=O)NC4CCN(Cc5ccc(C#N)cc5)CC4)nc3)CC2)cc1 [Compound 101, N-(1-(4-cyanobenzyl)piperidin-4-yl)-5-(4-(4-methoxybenzyl)piperazine-1-carbonyl)picolinamide] | < 500 nM
2 | N#Cc1ccc(CN2CCC(NC(=O)c3ccc(C(=O)N4CCN(Cc5ccncc5)CC4)cn3)CC2)cc1 [Compound 103, N-(1-(4-cyanobenzyl)piperidin-4-yl)-5-(4-(pyridin-4-ylmethyl)piperazine-1-carbonyl)picolinamide] | < 500 nM
3 | O=C(Nc1ccc(-c2ccccc2)cc1)c1ccc(C(=O)NC2CCN(Cc3ccccc3)CC2)nc1 [Compound 105, N2-(1-benzylpiperidin-4-yl)-N5-(biphenyl-4-yl)pyridine-2,5-dicarboxamide] | > 10000 nM
4 | O=C(Nc1cccc(-c2ccccc2)c1)c1ccc(C(=O)NC2CCN(Cc3ccccc3)CC2)nc1 [Compound 106, N2-(1-benzylpiperidin-4-yl)-N5-(biphenyl-3-yl)pyridine-2,5-dicarboxamide] | 5000 to 10000 nM
5 | O=C(Nc1ccccc1)c1ccc(C(=O)N2CCN(Cc3ccc(F)cc3)CC2)cn1 [Compound 107, 5-(4-(4-fluorobenzyl)piperazine-1-carbonyl)-N-phenylpicolinamide] | 5000 to 10000 nM
6 | N#Cc1ccc(CN2CCC(NC(=O)c3ccc(Nc4ccc(-c5ccccc5)cc4)cn3)CC2)cc1 [Compound 109, 5-(biphenyl-4-ylamino)-N-(1-(4-cyanobenzyl)piperidin-4-yl)picolinamide] | 5000 to 10000 nM
7 | N#Cc1ccc(CN2CCC(NC(=O)c3ccc(N4CCN(Cc5ccccc5)CC4)cn3)CC2)cc1 [Compound 110, 5-(4-benzylpiperazin-1-yl)-N-(1-(4-cyanobenzyl)piperidin-4-yl)picolinamide] | 1000 to 5000 nM
8 | CC(C)(c1ccc(C#N)cc1)N1CCC(NC(=O)c2ccc(C(=O)N3CCN(Cc4ccc(F)cc4)CC3)cn2)CC1 [Compound 111, N-(1-(2-(4-cyanophenyl)propan-2-yl)piperidin-4-yl)-5-(4-(4-fluorobenzyl)piperazine-1-carbonyl)picolinamide] | 1000 to 5000 nM
9 | O=C(NC1CCN(Cc2ccccc2)CC1)c1ccc(Nc2cccc(Oc3ccccc3)c2)cn1 [Compound 112, N-(1-benzylpiperidin-4-yl)-5-(3-phenoxyphenylamino) picolinamide] | 1000 to 5000 nM
10 | O=C(NC1CCN(Cc2ccccc2)CC1)c1ccc(Nc2ccc(Oc3ccccc3)cc2)cn1 [Compound 113, N-(1-benzylpiperidin-4-yl)-5-(4-phenoxyphenylamino) picolinamide] | 1000 to 5000 nM
11 | O=C(NC1CCN(Cc2ccccc2)CC1)c1ccc(Nc2cccc(-c3ccccc3)c2)cn1 [Compound 114, N-(1-benzylpiperidin-4-yl)-5-(biphenyl-3-ylamino)picolinamide] | 1000 to 5000 nM
12 | O=C(NCc1ccccc1)c1ccc(C(=O)N2CCN(Cc3ccc(F)cc3)CC2)cn1 [Compound 115, N-benzyl-5-(4-(4-fluorobenzyl)piperazine-1-carbonyl)picolinamide] | 5000 to 10000 nM
13 | O=C(NCc1ccccc1)c1ccc(C(=O)N2CCN(Cc3ccccc3)CC2)cn1 [Compound 116, N-benzyl-5-(4-benzylpiperazine-1-carbonyl)picolinamide] | 1000 to 5000 nM
14 | COc1ccc(CN2CCC(NC(=O)c3ccc(C(=O)N4CCN(Cc5ccc(F)cc5)CC4)cn3)CC2)cc1 [Compound 117, 5-(4-(4-fluorobenzyl)piperazine-1-carbonyl)-N-(1-(4-methoxybenzyl)piperidin-4-yl)picolinamide] | < 500 nM
15 | N#Cc1ccc(CN2CC[C@@H](NC(=O)c3ccc(C(=O)N4CCN(Cc5ccc(F)cc5)CC4)cn3)C2)cc1 [Compound 118, (R)-N-(1-(4-cyanobenzyl)pyrrolidin-3-yl)-5-(4-(4-fluorobenzyl)piperazine-1-carbonyl)picolinamide] | < 500 nM
16 | N#Cc1ccc(-c2ccc(Nc3ccc(C(=O)NC4CCN(Cc5ccccc5)CC4)nc3)cc2)cc1 [Compound 119, N-(1-benzylpiperidin-4-yl)-5-(4′-cyanobiphenyl-4-ylamino)picolinamide] | 1000 to 5000 nM
17 | COc1ccc(-c2ccc(Nc3ccc(C(=O)NC4CCN(Cc5ccccc5)CC4)nc3)cc2)cc1 [Compound 120, N-(1-benzylpiperidin-4-yl)-5-(4′-methoxybiphenyl-4-ylamino)picolinamide] | > 10000 nM

Results, then the molecule that gave them:

Row | EC50 | SMILES
18 | 1000 to 5000 nM | N#Cc1ccc(CN2CCC(NC(=O)c3ccc(-c4cn(Cc5ccccc5)nn4)cn3)CC2)cc1 [Compound 121, 5-(1-benzyl-1H-1,2,3-triazol-4-yl)-N-(1-(4-cyanobenzyl)piperidin-4-yl)picolinamide]
19 | < 500 nM | N#Cc1ccc(CN2CC[C@H](NC(=O)c3ccc(C(=O)N4CCN(Cc5ccc(F)cc5)CC4)cn3)C2)cc1 [Compound 123, (S)-N-(1-(4-cyanobenzyl)pyrrolidin-3-yl)-5-(4-(4-fluorobenzyl)piperazine-1-carbonyl)picolinamide]
20 | < 500 nM | CC1(C)CN(C(=O)c2ccc(C(=O)NC3CCN(Cc4ccc(C#N)cc4)CC3)nc2)CCN1Cc1ccc(F)cc1 [Compound 125, N-(1-(4-cyanobenzyl)piperidin-4-yl)-5-(4-(4-fluorobenzyl)-3,3-dimethylpiperazine-1-carbonyl)picolinamide]
21 | < 500 nM | N#Cc1ccc(CN2CCC(NC(=O)c3ccc(NC4CCN(c5ccccc5)CC4)cn3)CC2)cc1 [Compound 126, N-(1-(4-cyanobenzyl)piperidin-4-yl)-5-(1-phenylpiperidin-4-ylamino)picolinamide]
22 | < 500 nM | N#Cc1ccc(CC2CCN(C(=O)c3ccc(C(=O)NC4CCN(Cc5ccc(C#N)cc5)CC4)nc3)CC2)cc1 [Compound 128, N-(1-(4-cyanobenzyl)piperidin-4-yl)-5-(4-(4-cyanobenzyl)piperidine-1-carbonyl)picolinamide]
23 | < 500 nM | COc1ccc(C(=O)C2CCN(C(=O)c3ccc(C(=O)NC4CCN(Cc5ccc(C#N)cc5)CC4)nc3)CC2)cc1 [Compound 129, N-(1-(4-cyanobenzyl)piperidin-4-yl)-5-(4-(4-methoxybenzoyl)piperidine-1-carbonyl)picolinamide]
24 | < 500 nM | N#Cc1ccc(CN2CCC(NC(=O)c3ccc(C(=O)N4CCC(Cc5ccc(F)cc5)CC4)cn3)CC2)cc1 [Compound 130, N-(1-(4-cyanobenzyl)piperidin-4-yl)-5-(4-(4-fluorobenzyl)piperidine-1-carbonyl)picolinamide]
25 | < 500 nM | COc1ccc(CC2CCN(C(=O)c3ccc(C(=O)NC4CCN(Cc5ccc(C#N)cc5)CC4)nc3)CC2)cc1 [Compound 131, N-(1-(4-cyanobenzyl)piperidin-4-yl)-5-(4-(4-methoxybenzyl)piperidine-1-carbonyl)picolinamide]
26 | < 500 nM | CC(C)(c1ccccc1)N1CCN(C(=O)c2ccc(C(=O)NC3CCN(Cc4ccc(C#N)cc4)CC3)nc2)CC1 [Compound 133, N-(1-(4-cyanobenzyl)piperidin-4-yl)-5-(4-(2-phenylpropan-2-yl)piperazine-1-carbonyl)picolinamide]
27 | < 500 nM | N#Cc1ccc(CN2CCC(NC(=O)c3ccc(C(=O)N4CCC(c5ccc(Cl)cc5)CC4)cn3)CC2)cc1 [Compound 134, 5-(4-(4-chlorophenyl)piperidine-1-carbonyl)-N-(1-(4-cyanobenzyl)piperidin-4-yl)picolinamide]
28 | < 500 nM | N#Cc1ccc(CN2CCC(NC(=O)c3ccc(C(=O)N4CCC(Oc5ccc(C#N)cc5)CC4)cn3)CC2)cc1 [Compound 135, N-(1-(4-cyanobenzyl)piperidin-4-yl)-5-(4-(4-cyanophenoxy)piperidine-1-carbonyl)picolinamide]
29 | < 500 nM | N#Cc1ccc(CN2CCC(NC(=O)c3ccc(C(=O)N4CCC(C(=O)c5ccc(F)cc5)CC4)cn3)CC2)cc1 [Compound 136, N-(1-(4-cyanobenzyl)piperidin-4-yl)-5-(4-(4-fluorobenzoyl)piperidine-1-carbonyl)picolinamide]
30 | < 500 nM | N#Cc1ccc(CN2CCC(NC(=O)c3ccc(C(=O)N4CCCC(Oc5ccc(C#N)cc5)C4)cn3)CC2)cc1 (stereo not shown) [Compound 137, N-(1-(4-cyanobenzyl)piperidin-4-yl)-5-(3-(4-cyanophenoxy)piperidine-1-carbonyl)picolinamide]
31 | < 500 nM | N#Cc1ccc(CN2CCC(NC(=O)c3ccc(C(=O)N4CCC(C(F)c5ccc(F)cc5)CC4)cn3)CC2)cc1 (stereo not shown) [Compound 138, N-(1-(4-cyanobenzyl)piperidin-4-yl)-5-(4-(fluoro(4-fluorophenyl)methyl)piperidine-1-carbonyl)picolinamide]
32 | < 500 nM | N#Cc1ccc(CN2CCC(NC(=O)c3ccc(NC4CCN(c5ccc(Cl)cc5)CC4)cn3)CC2)cc1 [Compound 139, 5-(1-(4-chlorophenyl)piperidin-4-ylamino)-N-(1-(4-cyanobenzyl)piperidin-4-yl)picolinamide]
33 | < 500 nM | N#Cc1ccc(CN2CCC(NC(=O)c3ccc(C(=O)N4CCC(C(O)c5ccc(F)cc5)CC4)cn3)CC2)cc1 (stereo not shown) [Compound 142, N-(1-(4-cyanobenzyl)piperidin-4-yl)-5-(4-((4-fluorophenyl)(hydroxy)methyl)piperidine-1-carbonyl)picolinamide]
34 | 500 to 1000 nM | N#Cc1ccc(CN2CCc3ccc(NC(=O)c4ccc(C(=O)NCc5ccc(F)cc5)cn4)cc3C2)cc1 [Compound 144, N2-(2-(4-cyanobenzyl)-1,2,3,4-tetrahydroisoquinolin-7-yl)-N5-(4-fluorobenzyl)pyridine-2,5-dicarboxamide]
35 | < 500 nM | COc1ccc(CC2CCN(C(=O)c3ccc(C(=O)NC4CCN(Cc5ccc(C#N)cc5)CC4)nc3)CC2)cc1F [Compound 146, N-(1-(4-cyanobenzyl)piperidin-4-yl)-5-(4-(3-fluoro-4-methoxybenzyl)piperidine-1-carbonyl)picolinamide]
36 | < 500 nM | COc1cccc(CC2CCN(C(=O)c3ccc(C(=O)NC4CCN(Cc5ccc(C#N)cc5)CC4)nc3)CC2)c1 [Compound 147, N-(1-(4-cyanobenzyl)piperidin-4-yl)-5-(4-(3-methoxybenzyl)piperidine-1-carbonyl)picolinamide]
37 | 500 to 1000 nM | N#Cc1ccc(CN2CCC(NC(=O)c3ccc(C(=O)NCCOc4ccc(F)cc4)cn3)CC2)cc1 [Compound 149, N2-(1-(4-cyanobenzyl)piperidin-4-yl)-N5-(2-(4-fluorophenoxy)ethyl)pyridine-2,5-dicarboxamide]
